Test results reported in ChEMBL document CHEMBL1208749 (2010).

Test system: 3T3-L1
Test: Glucose uptake enhancing activity in insulin-stimulated mouse 3T3L1 cells at 10 uM after 4 days by FLIPR based 2-DG uptake assay relative to control
Assay type: functional

SMILES | fold change (FC)
O=C1c2c(O)cc(O)c([C@@H]3O[C@H](CO)[C@@H](O)[C@H](O)[C@H]3O)c2OCC1c1ccc(O)cc1 (stereo partly drawn) | 1.1
O=c1c(-c2ccc(O)cc2)coc2cc(O)ccc12 [DAIDZEIN] | 1.5
O=c1c(-c2ccc(O)cc2)coc2cc(O[C@@H]3O[C@H](CO)[C@@H](O)[C@H](O)[C@H]3O)ccc12 [DAIDZIN] | 1.15
O=c1c(-c2ccc(O[C@@H]3O[C@H](CO)[C@@H](O)[C@H](O)[C@H]3O)cc2)coc2cc(O)ccc12 | 1.15
O=c1cc(-c2ccc(O)cc2)oc2c([C@@H]3O[C@H](CO)[C@@H](O)[C@H](O)[C@H]3O)c(O)cc(O)c12 | 1.1
O=c1c(-c2ccc(O)cc2)coc2cc(O)c([C@H]3O[C@@H](CO)[C@H](O)[C@@H](O)[C@@H]3O)c(O)c12 | 1.5
O=c1c(-c2ccc(O)cc2)coc2c([C@@H]3O[C@H](CO)[C@@H](O)[C@H](O)[C@H]3O)c(O)ccc12 [PUERARIN] | 1.5
O=c1c(-c2ccc(O)cc2)coc2c(CC(O)CO)c(O)ccc12 (stereo not drawn) | 1.5
